Laboratory results taken from patent US8501446B2 (Vertex Pharmaceuticals Incorporated, priority 2004, dated 2013).

How the values were obtained:
Assay type in all cases: biochemical
ROCK I (AA 6-553) = target: T1, ROCK I (AA 6-553) (Homo sapiens, UniProt Q13464); test: ROCK inhibition assay, standard coupled enzyme system ("Enzyme"); details: enzyme-linked assay
T1 construct: ROCK I (AA 6-553)
In short: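 ROCK I (AA 6-553) at 45 nM and 30 °C with 45 μM ATP and 200 μM peptide, in 100 mM HEPES pH 7.5, 10 mM MgCl2, 25 mM NaCl, 2 mM DTT, 1.5% DMSO. ADP output read by a PK/LDH coupled system: 2.5 mM PEP, 350 μM NADH, 30 μg/ml PK, 10 μg/ml LDH.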

[1] = target: T2, full length Aurora-A (AA 1-403) (Homo sapiens, UniProt O14965); test: Aurora-A inhibition assay, standard coupled enzyme system; details: average Ki if more than one value determined
T2 construct: full length Aurora-A (AA 1-403)
T2 sequence (O14965 1-403): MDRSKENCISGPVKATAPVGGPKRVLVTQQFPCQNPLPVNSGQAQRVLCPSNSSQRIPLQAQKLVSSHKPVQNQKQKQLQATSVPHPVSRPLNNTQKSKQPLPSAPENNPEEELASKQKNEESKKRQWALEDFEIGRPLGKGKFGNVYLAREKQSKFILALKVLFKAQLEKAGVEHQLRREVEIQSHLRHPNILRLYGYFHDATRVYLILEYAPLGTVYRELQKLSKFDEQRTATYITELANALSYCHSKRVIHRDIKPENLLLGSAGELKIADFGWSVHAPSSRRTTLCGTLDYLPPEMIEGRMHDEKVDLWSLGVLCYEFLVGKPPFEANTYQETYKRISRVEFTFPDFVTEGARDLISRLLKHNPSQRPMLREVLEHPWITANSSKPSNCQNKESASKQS

Aurora-C = target: T3, Aurora-C (Homo sapiens, UniProt Q9UQB9); test: Aurora-C inhibition assay, coupled enzyme system as for Aurora-A; details: average Ki if more than one value determined
T3 sequence (Q9UQB9 1-309): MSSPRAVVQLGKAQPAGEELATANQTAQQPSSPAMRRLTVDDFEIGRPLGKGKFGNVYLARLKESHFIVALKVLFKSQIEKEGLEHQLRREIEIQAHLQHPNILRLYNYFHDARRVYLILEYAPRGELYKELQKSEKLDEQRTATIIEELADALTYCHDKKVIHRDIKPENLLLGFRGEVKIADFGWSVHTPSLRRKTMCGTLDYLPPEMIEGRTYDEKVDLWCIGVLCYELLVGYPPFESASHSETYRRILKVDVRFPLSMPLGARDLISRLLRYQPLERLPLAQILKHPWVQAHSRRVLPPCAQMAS
Protocol: Compounds were screened for their ability to inhibit full length Aurora-A (AA 1-403) activity using a standard coupled enzyme system (Fox et al., Protein Sci. 7, pp. 2249 (1998)). Reactions were carried out in a solution containing 100 mM HEPES (pH 7.5), 10 mM MgCl2, 25 mM NaCl, 300 μM NADH, 1 mM DTT and 3% DMSO. Final substrate concentrations in the assay were 200 μM ATP (Sigma Chemicals, St Louis, Mo.) and 800 μM peptide (LRRASLG, American Peptide, Sunnyvale, Calif.). Reactions were carried out at 30° C. and 35 nM Aurora-A. Final concentrations of the components of the coupled enzyme system were 2.5 mM phosphoenolpyruvate, 200 μM NADH, 60 μg/ml pyruvate kinase and 20 μg/ml lactate dehydrogenase.
An assay stock buffer solution was prepared containing all of the reagents listed above with the exception of ATP and the test compound of interest. The assay stock buffer solution (60 μl) was incubated in a 96 well plate with 2 μl of the test compound of interest at final concentrations spanning 0.002 μM to 30 μM at 30° C. for 10 min. Typically, a 12 point titration was conducted by preparing serial dilutions (from 1 mM compound stocks) with DMSO of the test compounds in daughter plates. The reaction was initiated by the addition of 5 μl of ATP (final concentration 200 μM). Rates of reaction were obtained using a Molecular Devices Spectramax plate reader (Sunnyvale, Calif.) over 10 min at 30° C. The Ki values were determined from the rate data as a function of inhibitor concentration using computerized nonlinear regression (Prism 3.0, Graphpad Software, San Diego, Calif.). Aurora-C activity was screened in a similar manner using Aurora-C protein. Aurora-B activity was screened using a radioactive assay, such as described in Examples 1 and 2, but using Aurora-B protein.

Aurora-B = Aurora-B (Homo sapiens, UniProt Q96GD4); test: Aurora-B inhibition assay, radioactive assay; details: average Ki if more than one value determined
Sequence of Aurora-B (Q96GD4 whole entry): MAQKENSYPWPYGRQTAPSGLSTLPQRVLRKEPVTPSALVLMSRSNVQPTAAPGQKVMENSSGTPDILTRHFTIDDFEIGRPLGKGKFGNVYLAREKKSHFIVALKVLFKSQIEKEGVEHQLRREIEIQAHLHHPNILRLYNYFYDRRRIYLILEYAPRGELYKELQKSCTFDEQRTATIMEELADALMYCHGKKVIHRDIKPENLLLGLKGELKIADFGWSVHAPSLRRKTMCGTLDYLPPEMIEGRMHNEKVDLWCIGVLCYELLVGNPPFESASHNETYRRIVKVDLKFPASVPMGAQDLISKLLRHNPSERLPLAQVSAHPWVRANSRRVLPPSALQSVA
In short: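 Radiometric [γ-33P]ATP kinase assay run as described for JAK3/ROCK but with Aurora-B protein; 33P incorporation into substrate measured by filter capture and scintillation counting after TCA quench. Background-subtracted data fit to give Ki(app).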

T1 sequence (Q13464 6-553, species assumed): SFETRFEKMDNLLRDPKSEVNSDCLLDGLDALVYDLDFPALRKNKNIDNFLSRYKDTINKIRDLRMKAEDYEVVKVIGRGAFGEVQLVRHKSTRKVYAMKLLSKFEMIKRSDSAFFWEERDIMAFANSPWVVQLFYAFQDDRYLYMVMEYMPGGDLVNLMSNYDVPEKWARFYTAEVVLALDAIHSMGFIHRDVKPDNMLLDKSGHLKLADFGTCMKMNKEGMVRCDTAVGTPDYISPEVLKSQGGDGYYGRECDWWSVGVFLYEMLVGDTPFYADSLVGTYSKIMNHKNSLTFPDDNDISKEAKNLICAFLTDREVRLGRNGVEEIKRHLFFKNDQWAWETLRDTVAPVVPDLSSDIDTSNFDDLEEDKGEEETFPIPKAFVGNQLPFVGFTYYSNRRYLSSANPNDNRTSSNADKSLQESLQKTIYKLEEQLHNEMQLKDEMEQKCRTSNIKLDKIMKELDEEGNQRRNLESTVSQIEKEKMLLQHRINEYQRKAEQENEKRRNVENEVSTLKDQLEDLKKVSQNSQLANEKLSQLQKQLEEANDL

Ki (ROCK I (AA 6-553))	Ki [1]	Ki (Aurora-C)	Ki (Aurora-B)	SMILES
500 to 5000 nM	< 500 nM	< 500 nM	< 500 nM	CC[C@H](Nc1nc(-c2c[nH]c3ncc(Cl)cc23)ncc1F)C(=O)NC [Compound 361]
500 to 5000 nM	< 500 nM	< 500 nM	< 500 nM	CNC(=O)[C@@H](Nc1nc(-c2c[nH]c3ncc(Cl)cc23)ncc1F)C(C)C [Compound 362]
500 to 5000 nM	< 500 nM	< 500 nM	< 500 nM	C[C@H](Nc1nc(-c2c[nH]c3ncc(Cl)cc23)ncc1F)C(=O)NCCNS(C)(=O)=O [Compound 368]
500 to 5000 nM	< 500 nM	< 500 nM	< 500 nM	CNC(=O)[C@H](CO)Nc1nc(-c2c[nH]c3ncc(Cl)cc23)ncc1F [Compound 387]
500 to 5000 nM	< 500 nM	< 500 nM	< 500 nM	C[C@H](Nc1nc(-c2c[nH]c3ncc(Cl)cc23)ncc1C#N)C(=O)NCC(F)(F)F [Compound 420]
500 to 5000 nM	< 500 nM	500 to 5000 nM	500 to 5000 nM	CC(C)c1cnc(-c2c[nH]c3ncc(Cl)cc23)nc1N[C@@H](C)C(=O)NCC(F)(F)F [Compound 429]
500 to 5000 nM	< 500 nM	< 500 nM	< 500 nM	C[C@H](Nc1nc(-c2c[nH]c3ncc(Cl)cc23)ncc1F)C(=O)NCCN [Compound 431]
500 to 5000 nM	< 500 nM	500 to 5000 nM	500 to 5000 nM	CCSCCNC(=O)[C@H](C)Nc1nc(-c2c[nH]c3ncc(Cl)cc23)ncc1F [Compound 447]
500 to 5000 nM	< 500 nM	< 500 nM	< 500 nM	CNCCNC(=O)[C@H](C)Nc1nc(-c2c[nH]c3ncc(Cl)cc23)ncc1F [Compound 452]
500 to 5000 nM	< 500 nM	500 to 5000 nM	500 to 5000 nM	CC(C)S(=O)(=O)NCCNC(=O)[C@H](C)Nc1nc(-c2c[nH]c3ncc(Cl)cc23)ncc1F [Compound 454]

The next lines start with the compound.

SMILES	Ki (ROCK I (AA 6-553))	Ki [1]	Ki (Aurora-C)	Ki (Aurora-B)
Fc1cnc(-c2c[nH]c3ncc(Cl)cc23)nc1NCC1CCCCC1 [Compound 349]	500 to 5000 nM	< 500 nM	< 500 nM	< 500 nM
C[C@H](Nc1nc(-c2c[nH]c3ncc(Cl)cc23)ncc1F)C1CCCCC1 [Compound 355]	500 to 5000 nM	< 500 nM	< 500 nM	< 500 nM
Fc1cnc(-c2c[nH]c3ncc(Cl)cc23)nc1NC1CCCCC1 [Compound 356]	500 to 5000 nM	< 500 nM	< 500 nM	< 500 nM
CNC(=O)c1cc(N[C@@H](C)c2ccc(F)cc2)nc(-c2c[nH]c3ncc(Cl)cc23)n1 [Compound 359]	500 to 5000 nM	< 500 nM	< 500 nM	< 500 nM
C[C@H](Nc1nc(-c2c[nH]c3ncc(Cl)cc23)ncc1C(=O)O)c1ccc(F)cc1 [Compound 370]	500 to 5000 nM	< 500 nM	< 500 nM	< 500 nM
C#Cc1cnc2[nH]cc(-c3ncc(F)c(N[C@@H](C)c4ccc(F)cc4)n3)c2c1 [Compound 374]	500 to 5000 nM	< 500 nM	< 500 nM	< 500 nM
O=C(CNc1nc(-c2c[nH]c3ncc(Cl)cc23)nc2ccccc12)NCC(F)(F)F [Compound 427]	500 to 5000 nM	< 500 nM	500 to 5000 nM	500 to 5000 nM
CNC(=O)CNc1nc(-c2c[nH]c3ncc(Cl)cc23)ncc1C(C)C [Compound 430]	500 to 5000 nM	< 500 nM	500 to 5000 nM	500 to 5000 nM
